Measurements as given in ChEMBL document CHEMBL5335803, “Potential of several triazene derivatives against DENGUE viruses” (Bioorg Med Chem Lett, 2024).
pEC50: −log10 of the molar value.

Legend:
Dengue virus [1] = assay: Antiviral activity against DENV infected in human Huh-7 cells assessed as percent of infected cells at 50 uM incubated for 72 hrs by flow cytometry relative to control; type: functional
Dengue virus [2] = assay: Antiviral activity against DENV infected in human Huh-7 cells assessed as reduction in viral growth incubated for 72 hrs by flow cytometry; type: functional, organism-based; conditions: Huh-7, 72 h
[3] = Cytotoxicity against human Huh-7 cells infected with DENV assessed as reduction in cell viability by microplate spectrophotometry; type: toxicity, cell-based
[4] = Selectivity index, ratio of CC50 for human Huh-7 cells to EC50 for DENV infected in Huh-7 cells; type: toxicity, cell-based; conditions: read-out: Selectivity Index
Dengue virus [5] = assay: Antiviral activity against DENV infected in human Huh-7 cells assessed as percent of infected cells at 12.5 uM incubated for 72 hrs by flow cytometry relative to control; type: functional

SMILES	Activity (Dengue virus [1])	pEC50 (Dengue virus [2])	CC50 [3] [µM]	selectivity ratio [4]	Activity (Dengue virus [5]) [%]
COc1ccc(/N=N/Nc2ncccc2C)cc1	22%	4.94	> 100		
CCN(CC)/N=N/c1ccc(OC)cc1	22%	< 4.30	24.4		
Brc1ccc(/N=N/Nc2ccccn2)cc1	<=20%	5.09	75.6	9.36	
NC(=O)c1ncn([C@@H]2O[C@H](CO)[C@@H](O)[C@H]2O)n1 [RIBAVIRIN]		4.39			
COc1ccc(/N=N/Nc2ccccn2)cc1	<=20%	> 5.81	15.5		
COc1ccc(/N=N/Nc2ccncc2)cc1	22%	4.32	28.5		
CN(/N=N/c1cccnc1)c1ccccc1		4.93	20.6		
O[C@H]1[C@H]2c3cc4c(cc3CN3CCC(=C[C@@H]1O)[C@H]23)OCO4 [LYCORINE]		5.77			
c1ccc(/N=N/Nc2ccccn2)cc1	<=20%	4.97	22.1		
Brc1cccc(/N=N/Nc2ccccn2)c1	<=20%	5.07	27.4		
c1cncc(/N=N/N2CCCc3ccccc32)c1	22%	5.10	7.09		
FC(F)(F)c1ccc(/N=N/Nc2ccncc2)cc1			11.9		
COc1ccc(/N=N/n2ccnc2)cc1	22%	4.49	72	2.22	
FC(F)(F)c1ccc(/N=N/n2ccnc2)cc1	<=20%	5.11	> 100	> 12.8	0
